Test results as given in paper PMC3916804, “The development and validation of an LC-MS/MS method for the determination of a new anti-malarial compound (TK900D) in human whole blood and its application to pharmacokinetic studies in mice” (Malaria Journal, 2014).
pIC50: −log10 of the molar value. Where two headings read alike, the source gives them in different places. Each block holds one molecule with its values, some of them ahead of it.

What was measured:
[1] = tested on: P. falciparum CQ-resistant (W2) strain; set-up: method as in PMID 24900630; conditions: read-out: in vitro antiplasmodial activity IC50; cited from earlier work
[2] = tested on: P. falciparum CQ-resistant (K1) strain; set-up: method as in PMID 24900630; conditions: read-out: in vitro antiplasmodial activity IC50; cited from earlier work
[3] = tested on: P. falciparum CQ-sensitive (3D7) strain; set-up: method as in PMID 24900630; conditions: read-out: in vitro antiplasmodial activity IC50; cited from earlier work
[4] = on-instrument stability (OIS) of extracted samples; type: physicochemical; conditions: for OIS (on-instrument stability), % Bias: extracted samples on instrument, n = 6; for on-instrument stability (in words): ~ 8.2 h on-instrument
Description: In order to assess the stability of the analytes while awaiting injection on instrument, on-instrument stability (OIS) was assessed for the period of time that the extracted samples were expected to stay on-instrument during the batch run-time (~ 9 h). Quality control samples at high and low concentrations (800.0 ng/ml and 10.01 ng/ml, respectively), were extracted in replicates of six and injected at the beginning and end of the run (i.e. six QC-high and six QC-low at the beginning of the run and another set of six QC-high and QC-low at the end of the run bracketed with quality control samples). The mean measured concentration of the OIS-samples (injected at the end of the run) and OIS-reference samples (injected at the beginning of the run) were compared: in order to be acceptable, their percentage difference should be within ± 15%.

[5] = freeze and thaw stability in blood; type: in vitro ADME, human; conditions: for Freeze and thaw stability, % Bias from nominal: blood, three freeze-thaw cycles from ~ -80°C, n = 6
Description: Quality control blood samples at high and low concentration, 800.0 and 10.01 ng/ml respectively, of TK900D stored frozen at ~ -80°C were allowed to thaw completely unassisted at room temperature and then refrozen for 12 to 24 hours. After three such freeze-thaw cycles the samples were assayed in the third validation run and the measured concentrations were compared with the nominal concentrations of these samples.

[6] = long-term stability in human whole blood; type: in vitro ADME; conditions: for Long term stability, % Bias from nominal: human whole blood, ~ -80°C, 181 days, n = 6
Description: For the determination of long-term stability in human whole blood, TK900D spiked quality control samples at 800.0 ng/ml and 10.01 ng/ml were stored at ~ -80°C for 181 days (long enough to cover the time period elapsed from the first day of sample collection to the final sample analysis). These samples were thawed on the day of testing and run together with freshly prepared calibration standards and quality controls and the values were calculated from the resulting calibration curve obtained from the calibration standards.

[7] = stock solution stability in methanol; type: physicochemical; conditions: for stock solution stability in methanol, % Reference (peak area vs fresh): 100.0 μg/ml in methanol, eight days, n = 6; for stability in methanol (in words): at room temperature, 5°C, and -20°C
Description: The stability of TK900D and TK900E in methanol was evaluated at room temperature, ~ 5°C and ~ -20°C. Stock solutions with concentrations of 100.0 μg/ml of TK900D and the internal standard were prepared in methanol. Three aliquots of each of the stock solutions were kept at room temperature, ~ 5 °C, and ~ –20°C, respectively, for eight days. After diluting the stored stock solutions in injection solvent to a 100.0 ng/ml, the stability of TK900D and that of the internal standard were assessed by comparing the peak areas obtained from the stored stock solutions with peak areas of the freshly prepared stock solutions. For stock solution results to be acceptable the percentage reference value should not exceed 15%.

[8] = short-term (on-bench) stability in blood; type: in vitro ADME, human; conditions: for On bench stability, % Bias from nominal: blood, room temperature on bench, n = 6
Description: […] The samples were assayed in one of the validation batches. The measured concentrations were compared with the nominal concentrations of these samples.

[9] = pharmacokinetic evaluation in mice (oral and IV), blood levels by LC-MS/MS; type: in vivo, C57/BL6 mice; conditions: for Blood CL total / Vd / Vss / AUC 0 - ∞ / Apparent t 1/2 / T max / Bioavailability / Cmax: male C57/BL6 mice; for AUC 0 - ∞ / Apparent t 1/2 / Cmax: blood; for Apparent t 1/2: mean of 5; for half-life: male, C57/BL6, mouse, whole blood, mice, read-out: apparent half-life, range
Description: Snapshot pharmacokinetic evaluations were performed on a number of analogues from the TK-series anti-malarial compounds. […] The test compound dissolved in a 20 mM Sodium acetate buffer (pH 4.0): Ethanol: PEG400 (70:5:25; v/v/) drug vehicle was administered orally to healthy C57/BL6 mice (n = 5) at doses of 40 and 20 mg/kg, and intravenously at doses of 5 and 2.5 mg/kg. Blood samples were collected at predetermined sampling times (except for the first sampling time, i.e. 5 minutes after dosing for the IV group and 10 minutes for the oral group, the sampling times were 0.5,1, 3, 5, 7, 12 and 24 h after dosing) by bleeding the tip of the tail, and analysed using a validated LC-MS/MS assay. Back-calculated concentrations of the blood samples were obtained from a standard regression curve with nine concentration levels (3.910 to 1000 ng/ml). Concentration vs. time profiles were constructed and the data analysed with Summit PK software to obtain the pharmacokinetic parameters.

[10] = tested on: CHO mammalian cell line; set-up: method as in PMID 24900630; conditions: MTT assay, read-out: cytotoxicity IC50; cited from earlier work
[11] = other: oral and intravenous, over all oral and IV dose groups
[12] = as summarised in abstract (matches oral 40 and 20 mg/kg groups)

Structure (SMILES): CCN(CC)CCCC(C)Nc1ccnc2cc(Cl)ccc12 (stereo not drawn) [CQ, Chloroquine, reference compound]
pIC50 [1]: 7.23 | pIC50 [2]: 7.44 | pIC50 [3]: 9.70

OIS (on-instrument stability), % Bias ([4]; High (800.0 ng/ml)): 0.9% | OIS (on-instrument stability), % Bias ([4]; Low (10.01 ng/ml)): 4.5% | on-instrument stability (in words) [4]: stable | freeze-thaw stability (in words) ([5]; at least three freeze-thaw cycles): stable | Freeze and thaw stability, % Bias from nominal ([5]; High (800.0 ng/ml)): 6.6% | Freeze and thaw stability, % Bias from nominal ([5]; Low (10.01 ng/ml)): 8.6% | stability in human whole blood (in words) ([6]; 181 days stored at -80°C): stable | Long term stability, % Bias from nominal ([6]; High (800.0 ng/ml)): 0.7% | Long term stability, % Bias from nominal ([6]; Low (10.01 ng/ml)): -4.0% | stock solution stability in methanol, % Reference (peak area vs fresh) ([7]; room temperature): 106.9% | stock solution stability in methanol, % Reference (peak area vs fresh) ([7]; ~ 5°C): 105.2% | stock solution stability in methanol, % Reference (peak area vs fresh) ([7]; ~ -20°C): 100.3% | stability in methanol (in words) [7]: stable | On bench stability, % Bias from nominal ([8]; High (800.0 ng/ml)): 8.3% | On bench stability, % Bias from nominal ([8]; Low (10.01 ng/ml)): 5.2% | on-bench stability (in words) ([8]; ~ 12 h on-bench at room temperature): stable | Blood CL total ([9]; IV 2.5 mg/kg): 48.9 mL/min/kg | Vd ([9]; IV 2.5 mg/kg): 7.9 L/kg | Vss ([9]; IV 2.5 mg/kg): 8.7 L/kg | AUC 0 - ∞ ([9]; IV 2.5 mg/kg): 104 µmol·min/L | Apparent t 1/2 ([9]; IV 2.5 mg/kg): 1.9 h | Blood CL total ([9]; IV 5.0 mg/kg): 44.8 mL/min/kg | Vd ([9]; IV 5.0 mg/kg): 8.9 L/kg | Vss ([9]; IV 5.0 mg/kg): 9.1 L/kg | AUC 0 - ∞ ([9]; IV 5.0 mg/kg): 222 µmol·min/L | Apparent t 1/2 ([9]; IV 5.0 mg/kg): 2.3 h | T max ([9]; oral 20 mg/kg): 1.4 h | Bioavailability ([9]; oral 20 mg/kg vs IV 2.5 mg/kg): 30.8% | AUC 0 - ∞ ([9]; oral 20 mg/kg): 256 µmol·min/L | Cmax ([9]; oral 20 mg/kg): 540 nM | Apparent t 1/2 ([9]; oral 20 mg/kg): 6.0 h | T max ([9]; oral 40 mg/kg): 1.4 h | Bioavailability ([9]; oral 40 mg/kg vs IV 5 mg/kg): 16.2% | AUC 0 - ∞ ([9]; oral 40 mg/kg): 287 µmol·min/L | Cmax ([9]; oral 40 mg/kg): 790 nM | Apparent t 1/2 ([9]; oral 40 mg/kg): 3.9 h | half-life [9, 11]: 2 to 6 h | half-life [9, 12]: 4 to 6 h
Structure (SMILES): CC(C)(C)n1nnnc1C(NCCNc1ccnc2cc(Cl)ccc12)c1ccc(Cl)c(Cl)c1 (stereo not drawn) [TK900D]
pIC50 [1]: 7.52 | pIC50 [2]: 8.09 | pIC50 [10]: 4.98 | pIC50 [3]: 9.40

on-instrument stability (in words) [4]: stable | stock solution stability in methanol, % Reference (peak area vs fresh) ([7]; room temperature): 102.8% | stock solution stability in methanol, % Reference (peak area vs fresh) ([7]; ~ 5°C): 103.5% | stock solution stability in methanol, % Reference (peak area vs fresh) ([7]; ~ -20°C): 98.2% | stability in methanol (in words) [7]: stable | Blood CL total ([9]; IV 2.5 mg/kg): 51.2 mL/min/kg | Vd ([9]; IV 2.5 mg/kg): 7.0 L/kg | Vss ([9]; IV 2.5 mg/kg): 6.5 L/kg | AUC 0 - ∞ ([9]; IV 2.5 mg/kg): 107 µmol·min/L | Apparent t 1/2 ([9]; IV 2.5 mg/kg): 1.6 h | Blood CL total ([9]; IV 5.0 mg/kg): 51.0 mL/min/kg | Vd ([9]; IV 5.0 mg/kg): 10.3 L/kg | Vss ([9]; IV 5.0 mg/kg): 12.6 L/kg | AUC 0 - ∞ ([9]; IV 5.0 mg/kg): 221 µmol·min/L | Apparent t 1/2 ([9]; IV 5.0 mg/kg): 2.5 h | T max ([9]; oral 20 mg/kg): 0.8 h | Bioavailability ([9]; oral 20 mg/kg vs IV 2.5 mg/kg): 25.9% | AUC 0 - ∞ ([9]; oral 20 mg/kg): 222 µmol·min/L | Cmax ([9]; oral 20 mg/kg): 940 nM | Apparent t 1/2 ([9]; oral 20 mg/kg): 3.6 h | T max ([9]; oral 40 mg/kg): 1.0 h | Bioavailability ([9]; oral 40 mg/kg vs IV 5 mg/kg): 30.6% | AUC 0 - ∞ ([9]; oral 40 mg/kg): 541 µmol·min/L | Cmax ([9]; oral 40 mg/kg): 2810 nM | Apparent t 1/2 ([9]; oral 40 mg/kg): 4.0 h | half-life [9, 11]: 1.6 to 4 h | half-life [9, 12]: 3.6 to 4 h
Structure (SMILES): CC(C)(C)n1nnnc1C(NCCNc1ccnc2cc(Cl)ccc12)c1ccc(Cl)cc1 (stereo not drawn) [TK900E]
pIC50 [1]: 7.59 | pIC50 [2]: 9.00 | pIC50 [3]: 8.70
